According to patent publication US20180311268A1, “RESPONSE-GUIDED HCV THERAPY” (EMORY UNIVERSITY, priority 2015, published 2018):
“And” between values parts separate entries of the source, which are not always exact repeats. Equal entries are not always repeated.

How the values were obtained:
[1] = system: HCV genotype 1; details: added to sofosbuvir and ledipasvir, 6 week triple-drug regimens; cited from earlier work
[2] = Plasma concentrations of anti-HCV drugs by LC-MS/MS; format: in vivo, human
Description: Plasma samples from patients infected with HCV were stored in aliquots at −80° C. until further processing. Viral RNA was extracted and the genome sequenced using an Applied Biosystems 3730×1 DNA analyser as previously described.^21 Data were analysed with the ABL-DeepChek-HCV 1.4 software (ABL SA, Luxembourg, Luxembourg). To confirm compliance, a liquid chromatography-tandem mass spectrometry (LC-MS/MS) method was developed to detect and quantify the anti-HCV drug concentrations in plasma collected from each patient. Briefly, blood samples were collected from 25 patients at 8 h, 24 h, and 48 h after initiating treatment. 50 μL of plasma was extracted with 3 mL of ethyl acetate containing abacavir (as an internal standard). The supernatant was collected, air dried, then reconstituted in 2 mmol/L ammonium acetate solution with 75% methanol. Five target compounds were simultaneously monitored and quantified by LC-MS/MS in the multiple reaction monitoring mode, including sofosbuvir (m/z 530.2/243.2), daclatasvir (m/z 739.5/339.3), ledipasvir (m/z 889.4/637.3), asunaprevir (m/z 748.4/648.4), and simeprevir (m/z 750.4/315.2). A Dionex Ultimate 3000 HPLC system (Thermo Scientific, Waltham, Mass., USA) coupled with an AB SCIEX API5000 triple quadrupole mass spectrometer (AB SCIEX, Framingham, Mass., USA) was used for analysis.
Fifty μL plasma was extracted with 3 mL of ethyl acetate containing abacavir (as internal standard). The supernatant was collected, air-dried then reconstituted in 2 mM ammonium acetate solution with 75% methanol. Five target compounds were simultaneously monitored and quantified by LC-MS/MS in the multiple reaction monitoring (MRM) mode, including sofosbuvir (m/z 530.2à243.2), daclatasvir (m/z 739.5à339.3), ledipasvir (m/z 889.4à637.3), asunaprevir (m/z 748.4à648.4) and simeprevir (m/z 750.4à315.2). SOF concentrations were measured with a wide range from BLOQ to 3,174 ng/mL; LDV and DCV were in the range of BLOQ to 469 ng/mL and 101 to 3045 ng/mL; ASV and SMV were in the range of BLOQ to 626 ng/mL and 30.6 to 693 ng/mL, respectively.

Structure (SMILES) | Patients with SVR12 [1] | Range of measured plasma concentrations ([2]; all subjects, 8, 24 and 48 hr after first treatment, BLOQ = below LOQ) | concentration at 8 h ([2]; human, in vivo, individual subjects on SOF + DCV + ASV Then SOF + LDV, >3 weeks treatment, 8 h) | concentration at 24 h ([2]; human, in vivo, individual subjects on SOF + DCV + ASV Then SOF + LDV, >3 weeks treatment, 24 h) | concentration at 48 h ([2]; human, in vivo, individual subjects on SOF + DCV + ASV Then SOF + LDV, >3 weeks treatment, 48 h) | concentration at 24 h ([2]; human, in vivo, individual subjects on SOF + DCV + SMV, 3 weeks treatment, 24 h) | concentration at 8 h ([2]; human, in vivo, individual subjects on SOF + LDV + ASV Then SOF + LDV, >3 weeks treatment, 8 h) | Plasma concentration ([2]; individual subjects on SOF + DCV + ASV, 3 weeks treatment, 8 h) | Plasma concentration ([2]; individual subjects on SOF + DCV + ASV, 3 weeks treatment, 24 h) | Plasma concentration ([2]; individual subjects on SOF + DCV + ASV, 3 weeks treatment, 48 h) | Plasma concentration ([2]; individual subjects on SOF + DCV + SMV, 3 weeks treatment, 8 h) | Plasma concentration ([2]; individual subjects on SOF + DCV + SMV, 3 weeks treatment, 24 h) | Plasma concentration ([2]; individual subjects on SOF + DCV + SMV, 3 weeks treatment, 48 h) | Plasma concentration ([2]; individual subjects on SOF + LDV + ASV Then SOF + LDV, >3 weeks treatment, 8 h) | Plasma concentration ([2]; individual subjects on SOF + LDV + ASV Then SOF + LDV, >3 weeks treatment, 24 h) | Plasma concentration ([2]; individual subjects on SOF + LDV + ASV, 3 weeks treatment, 8 h after initiating treatment) | Plasma concentration ([2]; individual subjects on SOF + LDV + ASV, 3 weeks treatment, 24 h) | Plasma concentration ([2]; individual subjects on SOF + LDV + ASV, 3 weeks treatment, 48 h)
CC[C@@H]1C[C@]1(NC(=O)[C@@H]1C[C@@H](Oc2cc(-c3csc(NC(C)C)n3)nc3c(Cl)c(OCCN4CCOCC4)ccc23)CN1C(=O)[C@@H](NC(=O)O[C@@H]1C[C@@H]2C[C@@H]2C1)C(C)(C)C)C(=O)O [GS-9451] | 95% |  |  |  |  |  |  |  |  |  |  |  |  |  |  |  |  | 
CC1=CC[C@H](C(=O)N(c2cc(C#CC(C)(C)C)sc2C(=O)O)[C@H]2CC[C@](O)(CO[C@H]3CCOC3)CC2)CC1 [GS-9669] | 95% |  |  |  |  |  |  |  |  |  |  |  |  |  |  |  |  | 
CC(C)OC(=O)[C@H](C)N[P@](=O)(OC[C@H]1O[C@@H](n2ccc(=O)[nH]c2=O)[C@](C)(F)[C@@H]1O)Oc1ccccc1 [SOF, Sofosbuvir] |  | ≤ 3,174 ng/mL | 9.99 ng/mL | 11.2 ng/mL | 631 ng/mL | 2410 ng/mL | 0.67 ng/mL | 0.55 ng/mL and 0.28 ng/mL and 2.03 ng/mL and 13.5 ng/mL and 0.47 ng/mL | 1.09 ng/mL and 0.28 ng/mL and 0.27 ng/mL and 192 ng/mL and 256 ng/mL | 1.41 ng/mL and 0.80 ng/mL and 7.55 ng/mL and 292 ng/mL and 12.7 ng/mL and 1807 ng/mL | 2.35 ng/mL and 0.26 ng/mL and 14.7 ng/mL and 0.42 ng/mL and 1.45 ng/mL | 2114 ng/mL and 1923 ng/mL | 3174 ng/mL and 1796 ng/mL and 1549 ng/mL and 1227 ng/mL | 0.58 ng/mL | 202 ng/mL and 1591 ng/mL and 0.61 ng/mL | 7.17 ng/mL and 5.52 ng/mL and 4.22 ng/mL and 18.2 ng/mL and 4.54 ng/mL and 10.4 ng/mL | 0.94 ng/mL and 8.92 ng/mL and 1.23 ng/mL and 2.13 ng/mL and 1.17 ng/mL and 0.99 ng/mL | 4.76 ng/mL and 6.35 ng/mL and 0.64 ng/mL and 1.59 ng/mL and 0.92 ng/mL and 0.81 ng/mL
